Here are results for 3 compounds from US20170157051A1, “SOLUBILITY ENHANCEMENT FOR HYDROPHOBIC DRUGS” (Freund Pharmatec Ltd., priority 2013, published 2017).

Each structure is given as a SMILES string. Where two headings read alike, the source gives them in different places. Bounds are passed on as bounds.

For series [1] the following is noted: cited from earlier work.
Series [2] is described as follows: Dissolution profile in biorelevant media (FaSSIF / FaSSGF), paddle apparatus. As to conditions: FaSSIF (fenofibrate, nifedipine, nimodipine, nabumetone) or FaSSGF (ibuprofen, gemfibrozil); 900 ml, 37° C., 75 rpm. It counts as physicochemical. As to the method:
Dissolution profile: The drug release profiles of the above formulations and the reference products (TRICOR ® 48 mg Fenofibrated tablets and Buplex® 200 mg Ibuprofen tablets) was tested in biorelevant dissolution media; using Fasted State Simulated Intestinal Fluid (FaSSIF) for Tricor® and Fasted State Simulated Gastric Fluid (FaSSGF) for Buplex®. USP […] (Paddle) was used.
Media temperature: 37° C.;
Paddle rotation speed: 75 rpm;
The method used to measure the dissolution rate is as described under ‘dissolution profile’ in the previous example. […] All other conditions remained the same.

As for `Cc1ccc(C)c(OCCCC(C)(C)C(=O)O)c1` [Gemfibrozil], the solubility in water in series [1] (at 25° C.) is less than 1000 µg/mL.

Consider `COc1ccc2cc(CCC(C)=O)ccc2c1` [Nabumetone], for which the “solubility in water (in words)” value in series [1] is given as “practically insoluble in water”.

In the case of `CC(C)Cc1ccc(C(C)C(=O)O)cc1` (stereo not shown) [Ibuprofen, iso-butyl-propanoic-phenolic acid], the “% drug dissolved / rate and extent of dissolution versus marketed product” value in series [2] was 1:2.7 ratio of Maisine:Kolliphor showed higher dissolution than a 1:1.8 ratio. Besides, the solubility in water result in series [1] is recorded as “Less than 1 mg/ml”.
